# Tested on: 624824-186-R-J3-PDC multicell spheroids, viability
# Assay: Anticancer human tumor 624824-186-R-J3-PDC patient-derived colon adenocarcinoma cell line growth inhibition [PI3K]
# Conditions: for IC50: curve of first compound; for viability, T/C: stronger effect = lower value
# Description: Combinatorial screen of targeted agents with the PI3K inhibitors inavolisib, alpelisib, duvelisib, and copanlisib in multi-cell type tumor spheroids
# A high-throughput screen of multi-cell type tumor spheroids was designed to identify active combinations of targeted small molecules and PI3K pathway inhibitors. Complex spheroids include a stromal component modeled by human endothelial cells (HUVEC) and fibroblasts modeled by human mesenchymal stem cells (MSCs). The concentration ranges selected for each drug and investigational agent were based upon clinically achievable concentrations if the clinical Cmax of the agent was known.
# Compounds. The drugs and investigational agents: inavolisib (NSC800729), alpelisib (NSC765974), duvelisib (NSC772469), copanlisib (NSC816437), ipatasertib (NSC767898), afuresertib (NSC778305), talazoparib (NSC767125), sapanisertib (NSC764658), selumetinib (NSC741078), tovorafenib (DAY101, NSC766906), vemurafenib (NSC761431), ravoxertinib (NSC781343), sotorasib (NSC818433), MRTX1133 (NSC 836407), abemaciclib (NSC 768073), palbociclib (NSC758247), venetoclax (NSC 766270), SY5609 (NSC837396), enzalutamide (NSC755605), and darolutamide (NSC825331), were obtained from the National Cancer Institute (NCI) Developmental Therapeutics Program Chemical Repository. The FDA-approved anticancer drug set is available from the NCI Developmental Therapeutics Program. […] The stock solutions were prepared in dimethyl sulfoxide (DMSO, Sigma-Aldrich, St. Louis, MO, cat. D2650) at 800-fold the tested concentration and stored at -70 degrees C prior to their use. All drugs and investigational agents were tested over a range starting from a high concentration at or near the clinical Cmax and decreasing in half-log increments. If the clinical Cmax for an agent had not been determined, the highest concentration tested was 10 microM.
# Cell Culture. All cells were maintained in an incubator at 37 degrees C and 5% CO2 with 95% humidity. The PDC lines were cultured according to standard operating procedures established by the NCI PDMR (https://pdmr.cancer.gov/sops/default.htm). All PDCs were thawed and cultured in Matrigel-coated flasks prepared with a working solution of 1X Ham's F-12 nutrient mix, without supplementation (Invitrogen, Waltham, MA, cat. 11765054), 100 U/mL penicillin-streptomycin (Invitrogen, cat. 15140122), and 2.5% Matrigel (Corning Inc., Corning, NY, cat. 354248) for the first three passages. The 354836-022-R-J1-PDC, 475296-252-R-J1-PDC, and 997726-040-R-J2-PDC lines were cultured in 6A media, which includes advanced DMEM/F-12 (Thermo Fisher Scientific, cat. 12634028), 10 mM HEPES (Thermo Fisher Scientific, cat. 15630080), 1X GlutaMAX supplement (Thermo Fisher Scientific, cat. 35050061), 0.1 mg/mL primocin (InvivoGen, San Diego, CA, cat. ant-pm-2), 10% defined fetal bovine serum, heat inactivated (HyClone Laboratories Inc., Logan, UT, cat. SH30070.03HI), 50% L-WRN conditioned media (ATCC, cat. CRL-3276), 1.25 mM N-Acetyl-L-cysteine (Sigma-Aldrich, cat. A9165), 10 mM nicotinamide (Sigma-Aldrich, cat. N0636), 1X B-27 supplement (Thermo Fisher Scientific, cat. 17504044), 1X N-2 supplement (Thermo Fisher Scientific, cat. 17502048), and 10 microM Y-27632 dihydrochloride (Tocris Bioscience, Bristol, United Kingdom, cat. 1254). The 624824-186-R-J2-PDC line was cultured in 6C/Colon 1B media, which includes all 6A media components plus 50 ng/mL human EGF recombinant protein (Thermo Fisher Scientific, cat. PHG0311). […]
# [1] = second compound 0.0316 µM, first compound 0.0316 µM
# [2] = second compound 0.0316 µM, first compound 0.1 µM
# [3] = second compound 0.0316 µM, first compound 0.316 µM
# [4] = second compound 0.0316 µM, first compound 1 µM
# [5] = second compound 0.0316 µM, first compound 3.16 µM
# [6] = second compound 0.0316 µM, first compound 10 µM
# [7] = second compound 0.1 µM, first compound 0.0316 µM
# [8] = second compound 0.1 µM, first compound 0.1 µM
# [9] = second compound 0.1 µM, first compound 0.316 µM
# [10] = second compound 0.1 µM, first compound 1 µM
# [11] = second compound 0.1 µM, first compound 3.16 µM
# [12] = second compound 0.1 µM, first compound 10 µM
# [13] = second compound 0.316 µM, first compound 0.0316 µM
# [14] = second compound 0.316 µM, first compound 0.1 µM
# [15] = second compound 0.316 µM, first compound 0.316 µM
# [16] = second compound 0.316 µM, first compound 1 µM
# [17] = second compound 0.316 µM, first compound 3.16 µM
# [18] = second compound 0.316 µM, first compound 10 µM
# [19] = second compound 1 µM, first compound 0.0316 µM
# [20] = second compound 1 µM, first compound 0.1 µM
# [21] = second compound 1 µM, first compound 0.316 µM
# [22] = second compound 1 µM, first compound 1 µM
# [23] = second compound 1 µM, first compound 3.16 µM
# [24] = second compound 1 µM, first compound 10 µM
# [25] = second compound 3.16 µM, first compound 0.0316 µM
# [26] = second compound 3.16 µM, first compound 0.1 µM
# [27] = second compound 3.16 µM, first compound 0.316 µM
# [28] = second compound 3.16 µM, first compound 1 µM
# [29] = second compound 3.16 µM, first compound 3.16 µM
# [30] = second compound 3.16 µM, first compound 10 µM
# [31] = second compound 10 µM, first compound 0.0316 µM
# [32] = second compound 10 µM, first compound 0.1 µM
# [33] = second compound 10 µM, first compound 0.316 µM
# [34] = second compound 10 µM, first compound 1 µM
# [35] = second compound 10 µM, first compound 3.16 µM
# [36] = second compound 10 µM, first compound 10 µM
# 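Also: spheroids exposed to agents for seven days before luminescence read.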
# 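For viability, T/C in this document: luminescent signal used as a stand-in for spheroid viability; percent viability relative to DMSO vehicle control wells taken as 100%.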
compound,measurement,setting,value
CC1(C)CCC(CN2CCN(c3ccc(C(=O)NS(=O)(=O)c4ccc(NCC5CCOCC5)c([N+](=O)[O-])c4)c(Oc4cnc5[nH]ccc5c4)c3)CC2)=C(c2ccc(Cl)cc2)C1 + Cc1nc(NC(=O)N2CCCC2C(N)=O)sc1-c1ccnc(C(C)(C)C(F)(F)F)c1,IC50,second compound 0.0316 µM,9.73 µM
same,IC50,second compound 0.1 µM,9.43 µM
same,IC50,second compound 0.316 µM,> 10 µM
same,IC50,second compound 1 µM,> 10 µM
same,IC50,second compound 3.16 µM,8.59 µM
same,IC50,second compound 10 µM,5.3 µM
same,"viability, T/C",[1],106%
same,"viability, T/C",[2],99.3%
same,"viability, T/C",[3],106%
same,"viability, T/C",[4],101%
same,"viability, T/C",[5],119%
same,"viability, T/C",[6],48.7%
same,"viability, T/C",[7],103%
same,"viability, T/C",[8],99.9%
same,"viability, T/C",[9],104%
same,"viability, T/C",[10],107%
same,"viability, T/C",[11],118%
same,"viability, T/C",[12],46.9%
same,"viability, T/C",[13],119%
same,"viability, T/C",[14],104%
same,"viability, T/C",[15],107%
same,"viability, T/C",[16],103%
same,"viability, T/C",[17],116%
same,"viability, T/C",[18],54.6%
same,"viability, T/C",[19],96.2%
same,"viability, T/C",[20],93.8%
same,"viability, T/C",[21],106%
same,"viability, T/C",[22],96.9%
same,"viability, T/C",[23],104%
same,"viability, T/C",[24],53.2%
same,"viability, T/C",[25],82.5%
same,"viability, T/C",[26],91.4%
same,"viability, T/C",[27],90.8%
same,"viability, T/C",[28],81.8%
same,"viability, T/C",[29],91.3%
same,"viability, T/C",[30],44.3%
same,"viability, T/C",[31],69.9%
same,"viability, T/C",[32],73.8%
same,"viability, T/C",[33],70.1%
same,"viability, T/C",[34],69.7%
same,"viability, T/C",[35],63.7%
same,"viability, T/C",[36],33.3%
C=CC(=O)N1CCN(c2nc(=O)n(-c3c(C)ccnc3C(C)C)c3nc(-c4c(O)cccc4F)c(F)cc23)C(C)C1 (stereo unspecified) + CC(Nc1ncnc2nc[nH]c12)c1cc2cccc(Cl)c2c(=O)n1-c1ccccc1,IC50,second compound 0.0316 µM,> 10 µM
same,IC50,second compound 0.1 µM,> 10 µM
same,IC50,second compound 0.316 µM,> 10 µM
same,IC50,second compound 1 µM,> 10 µM
same,IC50,second compound 3.16 µM,> 10 µM
same,IC50,second compound 10 µM,> 10 µM
same,"viability, T/C",[1],125%
same,"viability, T/C",[2],96.1%
same,"viability, T/C",[3],114%
same,"viability, T/C",[4],102%
same,"viability, T/C",[5],113%
same,"viability, T/C",[6],121%
same,"viability, T/C",[7],105%
same,"viability, T/C",[8],94.6%
same,"viability, T/C",[9],121%
same,"viability, T/C",[10],97.7%
same,"viability, T/C",[11],107%
same,"viability, T/C",[12],119%
same,"viability, T/C",[13],96.9%
same,"viability, T/C",[14],116%
same,"viability, T/C",[15],100%
same,"viability, T/C",[16],108%
same,"viability, T/C",[17],111%
same,"viability, T/C",[18],120%
same,"viability, T/C",[19],106%
same,"viability, T/C",[20],111%
same,"viability, T/C",[21],109%
same,"viability, T/C",[22],111%
same,"viability, T/C",[23],127%
same,"viability, T/C",[24],116%
same,"viability, T/C",[25],104%
same,"viability, T/C",[26],107%
same,"viability, T/C",[27],97.9%
same,"viability, T/C",[28],106%
same,"viability, T/C",[29],102%
same,"viability, T/C",[30],115%
same,"viability, T/C",[31],95.3%
same,"viability, T/C",[32],103%
same,"viability, T/C",[33],95.5%
same,"viability, T/C",[34],114%
same,"viability, T/C",[35],99.6%
same,"viability, T/C",[36],93.3%
C=CC(=O)N1CCN(c2nc(=O)n(-c3c(C)ccnc3C(C)C)c3nc(-c4c(O)cccc4F)c(F)cc23)C(C)C1 (stereo unspecified) + CC(Nc1ccc2c(c1)OCCn1cc(N3C(=O)OCC3C(F)F)nc1-2)C(N)=O,IC50,second compound 0.00316 µM,> 10 µM
same,IC50,second compound 0.01 µM,> 10 µM
same,IC50,second compound 0.0316 µM,> 10 µM
same,IC50,second compound 0.1 µM,> 10 µM
same,IC50,second compound 0.316 µM,> 10 µM
same,IC50,second compound 1 µM,> 10 µM
same,"viability, T/C","second compound 0.00316 µM, first compound 0.0316 µM",103%
same,"viability, T/C","second compound 0.00316 µM, first compound 0.1 µM",94.4%
same,"viability, T/C","second compound 0.00316 µM, first compound 0.316 µM",98.8%
same,"viability, T/C","second compound 0.00316 µM, first compound 1 µM",88.2%
same,"viability, T/C","second compound 0.00316 µM, first compound 3.16 µM",99.7%
same,"viability, T/C","second compound 0.00316 µM, first compound 10 µM",105%
same,"viability, T/C","second compound 0.01 µM, first compound 0.0316 µM",105%
same,"viability, T/C","second compound 0.01 µM, first compound 0.1 µM",99.2%
same,"viability, T/C","second compound 0.01 µM, first compound 0.316 µM",96.9%
same,"viability, T/C","second compound 0.01 µM, first compound 1 µM",94%
same,"viability, T/C","second compound 0.01 µM, first compound 3.16 µM",99.6%
same,"viability, T/C","second compound 0.01 µM, first compound 10 µM",106%
same,"viability, T/C",[1],97%
same,"viability, T/C",[2],98.5%
same,"viability, T/C",[3],102%
same,"viability, T/C",[4],96%
same,"viability, T/C",[5],113%
same,"viability, T/C",[6],99.6%
same,"viability, T/C",[7],91.7%
same,"viability, T/C",[8],97.2%
same,"viability, T/C",[9],107%
same,"viability, T/C",[10],102%
same,"viability, T/C",[11],107%
same,"viability, T/C",[12],104%
same,"viability, T/C",[13],90.1%
same,"viability, T/C",[14],96.8%
same,"viability, T/C",[15],94.5%
same,"viability, T/C",[16],94%
same,"viability, T/C",[17],108%
same,"viability, T/C",[18],98.4%
same,"viability, T/C",[19],95.1%
same,"viability, T/C",[20],83.7%
same,"viability, T/C",[21],87.4%
same,"viability, T/C",[22],87%
same,"viability, T/C",[23],87.4%
same,"viability, T/C",[24],91.3%

# — PubChem BioAssay AID1963977 (Molecular Pharmacology Branch, DTP, NCI, 2024)
